“Also recorded” adds a separate entry of the source.
Columns and labels:
[1] = tested on: BBMV of F4R+ pigs; test: F4 binding to BBMV after glycosidase or periodate treatment; set-up: species or system pig
Procedure: To remove sialic acid from the pAPN, 2 mg/ml BBMV from F4R+ pigs were incubated with soluble neuraminidase from Arthrobacter urefaciens (Calbiochem, specific for α2-3,6,8,9 linked sialic acid) for 3 hours at 37° C. according to the manufacturer's instructions. Fetuin, a sialic acid containing protein was used as a positive control and the buffer in which the neuraminidase was provided, was used as a negative control. Brush border membrane vesicles from F4R+ pigs were treated with N-glycosidase F (NEB, Beverly, Mass.) or with endoglycosidase H (NEB Beverly, Mass.) according to the manufacturer's instructions to remove all N-glycans (high mannose and complex, sialic acid containing glycans) or N-glycans of the high mannose type, respectively. RNAse B was used as a positive control and the buffer in which the enzyme was provided, was used as a negative control.
Brush border membrane vesicles from F4R+ pigs were treated with variable concentrations of NaIO4 (Sigma-Aldrich Chemie GmbH, Steinheim, Germany) in 50 mM sodiumacetate, pH 4.5, at 37° C. in the dark. Reactions were stopped by the addition of ethylene glycol to a final concentration of 20 mM. Brush border membrane vesicles from F4R− pigs were treated with the same […] and were used as a negative control.

[2] = tested on: pAPN-BHK-21 cells; test: Endocytosis assay (confocal microscopy) of FLUOS-labeled-F4 with chemical inhibitors; assay type: cell-based, porcine; conditions: for effect on F4 internalization in pAPN-BHK cells: different concentrations, inhibitor added 30 min before FLUOS-labeled-F4
Procedure: Cells were then washed with PBS supplemented with 0.1 mM CaCl2 and 1 mM MgCl2 (PBS+) to remove unbound FLUOS-labeled-F4 and shifted to 37° C. to start endocytosis. After different time intervals, cells were fixed with 3% paraformaldehyde (PF), permeabilized with 0.1% Triton X-100 and stained with 200 nM phalloidin-Texas Red (Molecular Probes, Eugene, Oreg., USA) in PBS+ for 1 h at 37° C. To analyze the effect of different inhibitors on endocytosis, cells were incubated with different concentrations of each inhibitor (Table 1). Inhibitors were added 30 min before incubation with FLUOS-labeled-F4 (25 μg). Cells were fixed with 3% PF at the indicated times. For each concentration of the chemical inhibitors, the viability of the cells was analyzed by flow cytometry after the addition of 10 μg propidium iodide (Molecular Probes, Eugene, Oreg., USA). The number of vesicles internalized in the cells was counted using confocal microscopy. Confocal images were acquired using a Leica TCS SP2 laser scanning spectrum confocal system (Leica Microsystems), using an argon 488-nm laser line and a […] 543-nm laser line to excite FITC and Texas Red respectively. Images were merged using Leica confocal software.

[3] = biological target: T1, F4R on brush border membrane vesicles (BBMV) (Sus scrofa, UniProt P15145); test: biochemical; assay type: binding, pig; conditions: read-out: inhibition of adhesion of F4R+ BBMV to F4ac
T1 construct: Brush border membrane vesicles (BBMV) of the small intestine were prepared from the F4R+ and F4R− pigs; from tissue; host or cells: pig jejunum: enterocyte preparations, BBMV, ligated jejunal loops
T1 sequence (P15145 2-963): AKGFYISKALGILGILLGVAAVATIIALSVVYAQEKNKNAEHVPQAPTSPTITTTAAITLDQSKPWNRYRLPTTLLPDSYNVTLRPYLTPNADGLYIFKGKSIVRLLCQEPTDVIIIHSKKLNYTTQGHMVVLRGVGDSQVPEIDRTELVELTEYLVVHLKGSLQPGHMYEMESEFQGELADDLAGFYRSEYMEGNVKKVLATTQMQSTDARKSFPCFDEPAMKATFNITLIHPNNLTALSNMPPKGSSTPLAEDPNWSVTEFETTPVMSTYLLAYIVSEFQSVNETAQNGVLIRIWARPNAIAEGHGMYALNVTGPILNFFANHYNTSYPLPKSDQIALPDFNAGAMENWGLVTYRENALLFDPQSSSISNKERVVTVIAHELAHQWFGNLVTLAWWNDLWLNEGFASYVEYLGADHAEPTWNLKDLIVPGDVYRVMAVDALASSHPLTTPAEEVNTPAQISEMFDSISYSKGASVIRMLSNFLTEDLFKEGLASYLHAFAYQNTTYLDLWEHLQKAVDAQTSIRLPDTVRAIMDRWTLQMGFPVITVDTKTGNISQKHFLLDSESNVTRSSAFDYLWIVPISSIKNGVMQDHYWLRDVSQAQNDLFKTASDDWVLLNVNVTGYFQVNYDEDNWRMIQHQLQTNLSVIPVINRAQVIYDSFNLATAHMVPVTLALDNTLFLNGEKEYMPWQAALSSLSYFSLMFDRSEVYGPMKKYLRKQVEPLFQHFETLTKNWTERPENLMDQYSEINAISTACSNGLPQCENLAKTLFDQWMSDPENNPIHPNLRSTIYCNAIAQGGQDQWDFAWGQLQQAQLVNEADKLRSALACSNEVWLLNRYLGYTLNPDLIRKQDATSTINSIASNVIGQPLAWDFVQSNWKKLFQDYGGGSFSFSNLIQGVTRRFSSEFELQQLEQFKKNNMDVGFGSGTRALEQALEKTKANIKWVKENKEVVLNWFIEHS
Procedure: Brush border membrane vesicles (BBMV) of the small intestine were prepared from the F4R+ and F4R− pigs by the method of Kessler (1978) with a slight modification. Enterocytes were washed twice in PBS with 0.1 mM PMSF and were resuspended in Tris-HCl buffer (2 mM, pH 7.2) containing 50 mM mannitol in ratio 3:1 (vol/vol) whereafter cells were homogenized for 2 min with an Ultra Turrax (Janke & Kunkel, I K A Labortechnik, Staufen, Germany). Subsequently, CaCl2 was added to the homogenate to a final concentration of 10 mM and placed on ice for 15 min. Then the homogenate was centrifugated at 27,000×g for 30 min and washed with Tris buffer (pH 7.5) containing 50 mM mannitol and 10 mM HEPES and centrifuged again. The pellet was resuspended in the same buffer and used for the study. The protein concentration of the obtained BBMV was determined using the bicinchoninic acid (BCA) reaction with bovine serum albumin (BSA) as standard (ICN Biomedicals, Belgium).
The interaction between the F4ac fimbriae and BBMV or enterocytes of F4R+ and F4R− pigs was analyzed with the BIAcore®2000 biosensor (Uppsala, Sweden) using the CM3 chip. […]

[4] = biological target: T2, F4R on enterocytes (Sus scrofa, UniProt P15145); test: biochemical; assay type: binding, pig; conditions: read-out: inhibition of adhesion of F4R+ enterocytes to F4ac
T2 construct: Brush border membrane vesicles (BBMV) of the small intestine were prepared from the F4R+ and F4R− pigs; from tissue; host or cells: pig jejunum: enterocyte preparations, BBMV, ligated jejunal loops
T2 sequence (P15145 2-963): T1 sequence (P15145 2-963)
Procedure: The interaction between the F4ac fimbriae and BBMV or enterocytes of F4R+ and F4R− pigs was analyzed with the BIAcore®2000 biosensor (Uppsala, Sweden) using the CM3 chip. This has a short carboxymethyldextran surface to allow immobilization of F4 fimbriae via free NH2-groups using an amine-coupling kit (Biacore, Uppsala, Sweden) containing N-hydroxysuccinimide (NHS), N-ethyl-N′-[(3-dimethylamino)-propyl]-carbodiimide hydrochloride (EDC) and ethanolamine-HCl. Hereto, 100 μl of a mixture of NHS:EDC (1:1) was injected at a flow rate of 10 μl/min at 25° to activate the dextran matrix on the sensor chip, followed by F4ac at a concentration of 100 μg/ml in 0.1 M glycine buffer pH 2.3 until the amount (mol) of immobilized F4 equilized more than 500 resonance units (RU). […] Subsequently, the remaining active sites of the matrix were blocked with 1 M ethanolamine-HCl and washed with HBS-N (0.01 M HEPES, 0.15 M NaCl). […] All samples used in further experiments were diluted in HBS-N buffer, which also served as running buffer during the experiments.
The first approach was to pre-incubate the F4R+ and F4R− enterocytes or BBMV with 0, 50 and 100 μg/ml F4ac fimbriae, while gently shaking. After 1 h pre-incubation at room temperature, a gentle short spin centrifugation was performed. […]

[5] = tested on: wheat germ agglutinin (WGA); test: SPR specificity control: bestatin pre-incubated BBMV and enterocytes on immobilized WGA; assay type: binding; conditions: bestatin 0 mM, 1 mM and 10 mM; F4R+ pigs
Procedure: The interaction between the F4ac fimbriae and BBMV or enterocytes of F4R+ and F4R− pigs was analyzed with the BIAcore®2000 biosensor (Uppsala, Sweden) using the CM3 chip. This has a short carboxymethyldextran surface to allow immobilization of F4 fimbriae via free NH2-groups using an amine-coupling kit (Biacore, Uppsala, Sweden) containing N-hydroxysuccinimide (NHS), N-ethyl-N′-[(3-dimethylamino)-propyl]-carbodiimide hydrochloride (EDC) and ethanolamine-HCl. Hereto, 100 μl of a mixture of NHS:EDC (1:1) was injected at a flow rate of 10 μl/min at 25° to activate the dextran matrix on the sensor chip, followed by F4ac at a concentration of 100 μg/ml in 0.1 M glycine buffer pH 2.3 until the amount (mol) of immobilized F4 equilized more than 500 resonance units (RU). Thousand RU corresponds to a change in the surface concentration of 1 ng/mm2 (Stenberg 1991). Subsequently, the remaining active sites of the matrix were blocked with 1 M ethanolamine-HCl and washed with HBS-N (0.01 M HEPES, 0.15 M NaCl). […] All samples used in further experiments were diluted in HBS-N buffer, which also served as running buffer during the experiments.
To check the specificity of blocking of bestatin, F4R+ and F4R− enterocytes or BBMV were pre-incubated with 0, 1 mM and 10 mM bestatin, while gently shaking for 1 hour at room temperature and injected in the WGA coated flow cell. […]

[6] = biological target: T3, pAPN transfected BHK-21 cells (Sus scrofa, UniProt P15145); test: Flow cytometry of FLUOS-labeled-F4 binding to pAPN transfected BHK-21 cells; assay type: cell-based, porcine
T3 construct: expressed in transfected cells; host or cells: BHK-21 (baby hamster kidney), G418-selected; gift
T3 sequence (P15145 1-963): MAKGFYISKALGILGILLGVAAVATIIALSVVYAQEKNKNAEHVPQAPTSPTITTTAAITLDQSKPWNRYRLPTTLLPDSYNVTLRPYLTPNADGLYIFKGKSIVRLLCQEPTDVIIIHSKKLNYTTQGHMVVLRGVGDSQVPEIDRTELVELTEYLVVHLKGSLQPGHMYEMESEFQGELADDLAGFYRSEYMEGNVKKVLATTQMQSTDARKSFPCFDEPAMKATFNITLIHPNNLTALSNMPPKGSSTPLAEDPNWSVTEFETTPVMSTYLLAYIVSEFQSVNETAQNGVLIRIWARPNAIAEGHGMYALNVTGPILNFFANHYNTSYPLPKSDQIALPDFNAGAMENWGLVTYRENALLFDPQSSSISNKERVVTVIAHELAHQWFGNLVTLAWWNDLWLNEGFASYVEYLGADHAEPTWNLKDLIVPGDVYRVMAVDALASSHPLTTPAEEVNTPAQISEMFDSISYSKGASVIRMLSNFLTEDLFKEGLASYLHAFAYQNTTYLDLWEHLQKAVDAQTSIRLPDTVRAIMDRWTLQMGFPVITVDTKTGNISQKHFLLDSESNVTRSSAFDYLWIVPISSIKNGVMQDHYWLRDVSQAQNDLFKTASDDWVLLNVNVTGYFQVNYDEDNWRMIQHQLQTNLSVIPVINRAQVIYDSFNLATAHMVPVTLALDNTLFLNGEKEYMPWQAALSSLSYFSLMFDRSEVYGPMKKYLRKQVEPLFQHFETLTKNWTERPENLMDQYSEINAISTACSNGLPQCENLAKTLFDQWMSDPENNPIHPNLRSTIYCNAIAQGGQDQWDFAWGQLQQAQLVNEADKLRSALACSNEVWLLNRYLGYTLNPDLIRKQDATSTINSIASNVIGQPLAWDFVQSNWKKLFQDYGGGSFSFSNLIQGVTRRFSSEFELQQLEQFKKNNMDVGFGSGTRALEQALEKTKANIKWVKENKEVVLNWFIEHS
Procedure: The BHK-21 and pAPN transfected BHK-21 cells were kindly gifted from Dr. Enjuanes and Dr. Delmas. The BHK-21 cells were cultured in DMEM with 5% FCS, 1% L-Glu, 1% P/S, 1% sodiumpyruvate (Gibco BRL, Life Technologies Inc., Paisley, Scotland), 1% non-essential amino acids (Gibco BRL, Life Technologies Inc., Paisley, Scotland). The pAPN transfected BHK-21 cells were grown in the same medium supplemented with 1.5 mg/ml geneticin G418 (Sigma-Aldrich Chemie GmbH, Steinheim, Germany).
To block the internalization of FLUOS-labeled-F4, 50 μM bestatin, an inhibitor of aminopeptidase N (Sigma-Aldrich Chemie GmbH, Steinheim, Germany) was incubated with BHK-21 or pAPN transfected BHK-21 cells 3 hours before addition of 25 μg FLUOS-labeled-F4. Afterwards, cells were washed 3 times with PBS. The BHK-21 or pAPN transfected BHK-21 cells were analyzed by flow cytometry with a FACScanto using CellDiva software (BD Biosciences). Ten thousand cells were analysed for each sample, and three parameters were used for further analysis: forward light scattering, sideward light scattering and green fluorescence. The median fluorescence intensity was used to measure the amount of FLUOS-labeled-F4 to the cells.

For `[O-][I+3]([O-])([O-])O` [NaIO4], the “binding of F4 to the receptor in BBMV of F4R+ pig” value ([1]; 25 mM NaIO4, 30 min) was “greatly reduced” and the “F4ac binding to the BBMV of F4R+ pigs” value ([1]; periodate, two hours treatment) was “abolishing; also recorded: abolished”.

For `NC12CC3CC(CC(C3)C1)C2` [amantadine], the “effect on F4 internalization in pAPN-BHK cells” value (“effect on F4 internalization” below) [2] was “reduced the F4 internalization”.

`CC(C)C[C@H](NC(=O)[C@@H](O)[C@H](N)Cc1ccccc1)C(=O)O` [bestatin] gave an inhibition at 1000 µM [3] of 4 ± 1.2%, an inhibition at 10000 µM [3] of 10 ± 2% and an inhibition at 1000 µM [4] of 22 ± 3.3%. For the same compound, the inhibition at 10000 µM [4] was 72 ± 1%, the “interaction of pre-incubated BBMV or enterocytes with WGA” value [5] was “No difference in interaction” and the “mean fluorescence intensity after treatment of bestatin” value [6] was 1001±15. For the same compound, the “FLUOS-labeled F4 internalization” value ([2]; bestatin 50 μM, added 30 minutes before FLUOS-labeled F4, pAPN-BHK cells) was 18±5.3%.

For `C=C1[C@@H](C)[C@H]2[C@H](Cc3ccccc3)NC(=O)[C@]23[C@H](OC(C)=O)/C=C/[C@@](C)(O)C(=O)[C@@H](C)C/C=C/[C@H]3[C@@H]1O` [cytochalasin D], the “effect on F4 internalization” value [2] was “reduced the F4 internalization”.

With `OC[C@H]1O[C@@](CO)(O[C@H]2O[C@H](CO)[C@@H](O)[C@H](O)[C@H]2O)[C@@H](O)[C@@H]1O` [hypertonic sucrose, sucrose] the “effect on F4 internalization” value [2] was “reduced the F4 internalization”.

With `C/C1=C/C(=O)O[C@@H]2C[C@@H](CC[C@H](C)/C=C\CC1)O[C@@](O)([C@@H]1CSC(=O)N1)C2` [latrunculin B] the “effect on F4 internalization” value [2] was “no effect”.

For dynamin inhibitory peptide, the “effect on F4 internalization” value [2] was “reduced the F4 internalization”.
